Laboratory results published in patent US20080090805A1, “CB-1 MODULATING COMPOUNDS AND THEIR USE” (ACADIA PHARMACEUTICALS INC., priority 2005, published 2008).
Where two headings read alike, the source gives them in different places.

Target: CB1 (mutant) (Homo sapiens, UniProt P21554)
Experiment: R-SAT functional receptor assay, CB1 (mutant, truncated after amino acid 417)
Format: cell-based
Conditions: R-SAT CB1; for IC50: receptor form (mutant or wild-type) not stated; for Emax / % Inhibition: receptor form not stated, relative to SR141716 (100%); for Emax: read-out: % Inhibition
[1] = Appendix A, read-out: pIC50 (converted)

CB1 (mutant), sequence (P21554 1-417, change not shown): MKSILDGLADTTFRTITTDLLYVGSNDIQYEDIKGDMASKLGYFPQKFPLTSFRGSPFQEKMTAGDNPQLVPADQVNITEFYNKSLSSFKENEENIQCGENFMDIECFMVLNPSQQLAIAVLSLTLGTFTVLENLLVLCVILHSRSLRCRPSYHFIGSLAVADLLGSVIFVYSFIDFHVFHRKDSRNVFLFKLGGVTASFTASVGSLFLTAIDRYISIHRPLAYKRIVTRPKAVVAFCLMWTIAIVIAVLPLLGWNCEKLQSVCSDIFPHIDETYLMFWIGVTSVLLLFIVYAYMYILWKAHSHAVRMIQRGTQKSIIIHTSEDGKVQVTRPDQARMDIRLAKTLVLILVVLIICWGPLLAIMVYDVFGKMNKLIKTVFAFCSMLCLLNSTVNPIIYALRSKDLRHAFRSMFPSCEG

| IC50 [1] | Emax (Appendix A) | % Inhibition (Appendix A) | SMILES | IC50 (pIC50, Appendix A) |
| --- | --- | --- | --- | --- |
| 25.1 nM | 102% |  | O=C(NCCc1cccc(Cl)c1)c1ccc2c(c1)N=C(C1CCCCC1)c1ccccc1S2 [drawing 1001] |  |
| 25.1 nM |  | 92% | O=C(NCCc1ccccn1)c1ccc2c(c1)N=C(c1ccc(Cl)cc1)c1ccccc1S2 [drawing 1005] |  |
| 25.1 nM | 106% |  | O=C(NCc1cccnc1)c1ccc2c(c1)N=C(c1ccc(Br)cc1)c1ccccc1S2 [drawing 1007] |  |
| 25.1 nM | 92% |  | O=C(NN1CCCCCC1)c1ccc2c(c1)N=C(c1ccc(F)cc1)c1ccccc1S2 [drawing 1009] |  |
| 501 nM | 101% |  | CCCCNC(=O)c1ccc2c(c1)N=C(c1ccc(Cl)s1)c1ccc(F)cc1S2 [drawing 1010] |  |
| 25.1 nM | 117% |  | O=C(NCc1ccccc1Cl)c1ccc2c(c1)N=C(N1CCCCC1)c1ccccc1S2 [drawing 1013] |  |
| 25.1 nM | 96% |  | O=C(NCc1ccccc1)c1ccc2c(c1)N=C(c1ccccc1F)c1ccccc1S2 [drawing 1015] |  |
| 25.1 nM | 105% |  | CC(CNC(=O)c1ccc2c(c1)N=C(N1CCCCC1)c1ccccc1S2)c1ccccc1 (stereo not drawn) [drawing 1017] |  |
| 25.1 nM | 106% |  | O=C(NCCc1ccccc1)c1ccc2c(c1)N=C(N1CCCCC1)c1ccccc1S2 [drawing 1019] |  |
| 25.1 nM | 96% |  | CC(C)CNC(=O)c1ccc2c(c1)N=C(c1ccccn1)c1ccccc1S2 [drawing 1021] |  |
| 25.1 nM | 106% |  | O=C(NCCc1ccccc1)c1ccc2c(c1)N=C(c1ccccc1)c1ccccc1S2 [drawing 1023] |  |
| 25.1 nM | 115% |  | COCCNC(=O)c1ccc2c(c1)N=C(c1cccc(F)c1)c1ccccc1S2 [drawing 1025] |  |
| 25.1 nM | 110% |  | O=C(NCCc1cccnc1)c1ccc2c(c1)N=C(c1ccc(Cl)s1)c1ccccc1S2 [drawing 1029] |  |
| 25.1 nM | 94% |  | O=C(NCCc1ccncc1)c1ccc2c(c1)N=C(c1ccc(F)cc1)c1ccccc1S2 [drawing 1031] |  |
| 25.1 nM | 119% |  | O=C(NCCc1cccnc1)c1ccc2c(c1)N=C(c1ccc(F)cc1)c1ccccc1S2 [drawing 1033] |  |
| 25.1 nM | 114% |  | O=C(NCc1cccnc1)c1ccc2c(c1)N=C(c1ccccc1F)c1ccccc1S2 [drawing 1035] |  |
| 25.1 nM | 118% |  | O=C(NCc1cccs1)c1ccc2c(c1)N=C(c1ccccn1)c1ccccc1S2 [drawing 1037] |  |
| 31.6 nM | 76% |  | Cc1ccc(CNC(=O)c2ccc3c(c2)N=C(c2ccc(Cl)cc2F)c2ccccc2S3)o1 [drawing 1039] |  |
| 31.6 nM |  | 96% | O=C(NN1CCCCCC1)c1ccc2c(c1)N=C(c1ccc(Cl)cc1)c1ccccc1S2 [drawing 1041] |  |
| 31.6 nM | 100% |  | Cc1ccsc1C1=Nc2cc(C(=O)NN3CCCCC3)ccc2Sc2ccccc21 [drawing 1045] |  |

| IC50 [1] | Emax (Appendix A) | % Inhibition (Appendix A) | SMILES | IC50 (pIC50, Appendix A) |
| --- | --- | --- | --- | --- |
| 31.6 nM | 101% |  | Cc1ccsc1C1=Nc2cc(C(=O)NCCC(F)(F)F)ccc2Sc2ccccc21 [drawing 1047] |  |
| 31.6 nM | 93% |  | O=C(NCCc1ccccn1)c1ccc2c(c1)N=C(c1ccc(Cl)cc1)c1ccccc1S2 [drawing 1049] |  |
| 31.6 nM | 98% |  | CCCC1=Nc2cc(C(=O)NCCc3cc(OC)ccc3OC)ccc2Sc2ccccc21 [drawing 1051] |  |
| 31.6 nM | 105% |  | CC(C)CCNC(=O)c1ccc2c(c1)N=C(c1ccccc1Cl)c1ccccc1S2 [drawing 1053] |  |
| 31.6 nM | 92% |  | CCCNC(=O)c1ccc2c(c1)N=C(c1ccc(Br)cc1)c1ccccc1S2 [drawing 1055] |  |
| 31.6 nM | 96% |  | O=C(NCc1ccc(Cl)cc1Cl)c1ccc2c(c1)N=C(c1ccc(F)cc1)c1ccccc1S2 [drawing 1057] |  |
| 31.6 nM | 91% |  | O=C(NCc1ccccc1Cl)c1ccc2c(c1)N=C(C1CCCCC1)c1ccccc1S2 [drawing 1059] |  |
| 31.6 nM | 111% |  | O=C(NC1CCCCC1)c1ccc2c(c1)N=C(c1ccc(F)cc1)c1ccccc1S2 [drawing 1065] |  |
| 31.6 nM | 117% |  | CC(C)CCNC(=O)c1ccc2c(c1)N=C(c1ccccc1F)c1ccccc1S2 [drawing 1067] |  |
| 31.6 nM | 102% |  | O=C(NCCc1cccc(Cl)c1)c1ccc2c(c1)N=C(c1ccccc1)c1ccccc1S2 [drawing 1069] |  |
| 31.6 nM | 93% |  | O=C(NCCc1ccccn1)c1ccc2c(c1)N=C(c1ccc(Cl)c(Cl)c1)c1ccccc1S2 [drawing 1077] |  |
| 31.6 nM | 97% |  | CC(C)NC(=O)c1ccc2c(c1)N=C(c1ccc(F)cc1)c1ccccc1S2 [drawing 1079] |  |
| 31.6 nM | 69% |  | COCCNC(=O)c1ccc2c(c1)N=C(c1ccc(Br)cc1)c1ccccc1S2 [drawing 1081] |  |
| 31.6 nM | 99% |  | O=C(NCc1cccc(Cl)c1)c1ccc2c(c1)N=C(c1ccccc1F)c1ccccc1S2 [drawing 1083] |  |
| 31.6 nM | 88% |  | O=C(NCc1cccnc1)c1ccc2c(c1)N=C(c1ccc(Cl)cc1)c1ccccc1S2 [drawing 1093] |  |
| 31.6 nM | 119% |  | O=C(NCCc1ccncc1)c1ccc2c(c1)N=C(c1ccc(Cl)c(Cl)c1)c1ccccc1S2 [drawing 1095] |  |
| 31.6 nM | 109% |  | CCOC(=O)N1CCC(NC(=O)c2ccc3c(c2)N=C(c2ccc(Cl)cc2)c2ccccc2S3)CC1 [drawing 1101] |  |
| 39.8 nM | 88% |  | CC(NC(=O)c1ccc2c(c1)N=C(c1ccc(Cl)cc1)c1ccccc1S2)c1ccccc1 (stereo not drawn) [drawing 1107] |  |
| 39.8 nM | 104% |  | CCCCNC(=O)c1ccc2c(c1)N=C(c1ccc(Cl)s1)c1ccc(Cl)cc1S2 [drawing 1109] |  |
| 39.8 nM | 98% |  | CCCCNC(=O)c1ccc2c(c1)N=C(c1ccc(Cl)cc1)c1cc(F)ccc1S2 [drawing 1111] |  |

| IC50 [1] | Emax (Appendix A) | % Inhibition (Appendix A) | SMILES | IC50 (pIC50, Appendix A) |
| --- | --- | --- | --- | --- |
| 39.8 nM | 106% |  | CC(C)CNC(=O)c1ccc2c(c1)N=C(c1ccc(Cl)cc1)c1ccc(Cl)cc1S2 [drawing 1113] |  |
| 39.8 nM | 100% |  | CCN(CCNC(=O)c1ccc2c(c1)N=C(c1ccccc1F)c1ccccc1S2)c1ccccc1 [drawing 1117] |  |
| 39.8 nM | 103% |  | O=C(NCCc1ccc(Cl)cc1)c1ccc2c(c1)N=C(N1CCC(F)CC1)c1ccccc1S2 [drawing 1119] |  |
| 39.8 nM | 89% |  | O=C(NCc1ccccc1Cl)c1ccc2c(c1)N=C(c1ccc(F)cc1)c1ccccc1S2 [drawing 1121] |  |
| 39.8 nM | 101% |  | O=C(NCc1ccc(Cl)cc1Cl)c1ccc2c(c1)N=C(N1CCCCC1)c1ccccc1S2 [drawing 1123] |  |
| 39.8 nM | 98% |  | O=C(NCc1ccc(F)cc1)c1ccc2c(c1)N=C(c1ccc(Cl)cc1)c1ccccc1[S+]2[O-] (stereo not drawn) [drawing 1125] |  |
| 39.8 nM | 106% |  | O=C(NN1CCCCC1)c1ccc2c(c1)N=C(c1cccc(Cl)c1)c1ccccc1S2 [drawing 1127] |  |
| 39.8 nM | 96% |  | CCCCNC(=O)c1ccc2c(c1)N=C(c1ccccc1F)c1ccccc1S2 [drawing 1129] |  |
| 39.8 nM | 96% |  | C[C@@H]1CCC[C@H](C)N1NC(=O)c1ccc2c(c1)N=C(c1ccc(Cl)cc1)c1ccccc1S2 [drawing 1133] |  |
| 39.8 nM | 116% |  | O=C(NCCc1ccncc1)c1ccc2c(c1)N=C(c1ccc(Cl)cc1)c1ccccc1S2 [drawing 1135] |  |
| 39.8 nM | 86% |  | O=C(NC1CCCC1)c1ccc2c(c1)N=C(c1ccc(Cl)s1)c1ccccc1S2 [drawing 1139] |  |
| 39.8 nM | 85% |  | CCOCCNC(=O)c1ccc2c(c1)N=C(c1ccc(Br)cc1)c1ccccc1S2 [drawing 1143] |  |
| 39.8 nM | 101% |  | O=C(NCCc1ccccn1)c1ccc2c(c1)N=C(c1ccc(F)cc1)c1ccccc1S2 [drawing 1145] |  |
| 39.8 nM | 85% |  | CC(NC(=O)c1ccc2c(c1)N=C(c1ccccc1)c1ccccc1S2)c1ccccc1 (stereo not drawn) [drawing 1147] |  |
| 39.8 nM | 103% |  | C[C@@H]1CCC[C@H](C)N1NC(=O)c1ccc2c(c1)N=C(c1ccccc1F)c1ccccc1S2 [drawing 1149] |  |
| 39.8 nM | 115% |  | COc1ccc(C2=Nc3cc(C(=O)NC4CCCCC4)ccc3Sc3ccccc32)cc1 [drawing 1153] |  |
| 39.8 nM | 104% |  | CC(C)NC(=O)c1ccc2c(c1)N=C(c1cccc(F)c1)c1ccccc1S2 [drawing 1155] |  |
| 39.8 nM | 125% |  | O=C(NCc1ccccn1)c1ccc2c(c1)N=C(c1ccc(Cl)cc1)c1ccccc1S2 [drawing 1157] |  |
| 39.8 nM | 98% |  | CCCCNC(=O)c1ccc2c(c1)N=C(c1ccc(Cl)cc1Cl)c1ccccc1S2 [drawing 1165] |  |

| SMILES | IC50 [1] | Emax (Appendix A) | % Inhibition (Appendix A) | IC50 (pIC50, Appendix A) |
| --- | --- | --- | --- | --- |
| CCCC1=Nc2cc(C(=O)NCCc3ccc(Cl)cc3)ccc2Sc2ccccc21 [drawing 1003] |  | 110% |  | 25.1 nM |
| O=C(NCCc1ccc(Cl)cc1)c1ccc2c(c1)N=C(c1ccccc1F)c1ccccc1S2 [drawing 1085] |  | 101% |  | 31.6 nM |
| O=C(NCc1ccccc1Cl)c1ccc2c(c1)N=C(c1ccc(Cl)cc1)c1ccccc1S2 [drawing 1089] |  | 95% |  | 31.6 nM |
| O=C(NCCc1ccncc1)c1ccc2c(c1)N=C(c1cccc(F)c1)c1ccccc1S2 [drawing 1097] |  | 106% |  | 31.6 nM |
| CCCC1=Nc2cc(C(=O)NC3CCCC(C)C3C)ccc2Sc2ccccc21 (stereo not drawn) [drawing 1115] |  | 101% |  | 39.8 nM |
| Cc1ccc(CNC(=O)c2ccc3c(c2)N=C(c2ccc(Cl)cc2)c2ccccc2S3)o1 [drawing 1141] |  | 93% |  | 39.8 nM |
| O=C(c1ccc2c(c1)N=C(c1ccc(F)cc1)c1ccccc1S2)N1CCCCC1 [drawing 1163] |  | 90% |  | 39.8 nM |
